This note sets out measurements from patent US6656956B2, “Benzimidazole derivatives, processes for preparing them and their use as pharmaceutical compositions” (Boehringer Ingelheim Pharma KG, priority 2001, dated 2003).

pIC50: −log10 of the molar value. Counter-ions that a name gives are not always drawn.

The target in this test is T1, rh beta tryptase (Homo sapiens, UniProt Q15661).
T1 construct: purchased Promega
T1 sequence (Q15661 31-275): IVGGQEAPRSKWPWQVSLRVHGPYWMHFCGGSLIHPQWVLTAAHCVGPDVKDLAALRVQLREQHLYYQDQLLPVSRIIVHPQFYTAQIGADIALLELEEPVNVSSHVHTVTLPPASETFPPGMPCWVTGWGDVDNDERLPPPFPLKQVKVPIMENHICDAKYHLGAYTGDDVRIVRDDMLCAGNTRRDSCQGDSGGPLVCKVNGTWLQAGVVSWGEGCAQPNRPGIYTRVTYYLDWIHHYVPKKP
Briefly: tryptase inhibition in vitro test (cleavage of N-p-tosyl-Gly-Pro-Lys-para-nitroaniline, p-nitroaniline measured at 405 nm). The settings on record: rh beta tryptase 0.91 U/ml, substrate 0.6 mM, Tris HCl buffer with calcium and heparin, pH 7.4, 37° C., 5 minutes incubation; read-out: Tryptase-inhibiting activity. Type of test: biochemical. Here is the method: The compounds according to the invention are characterised by their tryptase-inhibiting activity. This ability to inhibit tryptase was investigated using the test described below.
The measurement is carried out in Tris HCl buffer (100 mM), which additionally contains calcium (5 mM) and heparin ([…]), at pH 7.4. The standard used is rh beta tryptase which may be obtained commercially from Promega, for example. The substrate used is N-p-tosyl-Gly-Pro-Lys-para-nitroaniline in a concentration of 0.6 mM. The substrate is digested with tryptase to form p-nitroaniline which can be measured at 405 nm. Usually, an incubation period of 5 minutes and an incubation temperature of 37° C. are chosen. The enzyme activity used is 0.91 U/ml. The measurements are carried out in an Autoanalyser (Cobas Bio) made by Hofmann LaRoche. The potential inhibitory substances are used in concentrations of 10 μM in the screening, the inhibition of the tryptase being given in percent. The IC50 is determined at over 70% inhibition (concentration at which 50% of the enzyme activity is inhibited). After 5 minutes' pre-incubation of the potential inhibitory substances, the substrate is added to start the reaction, the formation of p-nitroaniline being taken as a measurement of the enzyme activity after 5 minutes, after testing the linearity.
Regarding `Cn1c(CCc2ccc(C(=N)N)cc2)nc2cc(N(Cc3cccc4ccccc34)C(=O)CN3CCC(C(=O)c4ccccc4)CC3)ccc21` [Example 24, N-{2-[2-(4-Amidinophenyl)-ethyl]-1-methyl-benzimidazol-5-yl}-N-[naphth-1-ylmethyl]-2-[4-(phenylcarbonyl)-piperid-1-yl]-acetamide, dihydrochloride], the pIC50 was 8.52 to 9.30.
Regarding `Cc1ccc(NC2CCN(CC(=O)N(C)c3ccc4c(c3)nc(CCc3ccc(C(=N)N)cc3)n4C)CC2)c(Br)c1` [Example 66, N-{2-[2-(4-Amidinophenyl)-ethyl]-1-methyl-benzimidazol-5-yl}-N-methyl-2-[4-(2-bromo-4-methylamino)-piperid-1-yl]-acetamide, dihydrochloride], the pIC50 was 8.52 to 9.30.
For `CN(C(=O)CN1CCC(Nc2ccc(Cl)c(Cl)c2)CC1)c1ccc2c(c1)nc(CCc1ccc(C(=N)N)cc1)n2C` [Example 107, N-{2-[2-(4-Amidinophenyl)-ethyl]-1-methyl-benzimidazol-5-yl}-N-methyl-2-[4-(3,4-dichlorophenylamino)-piperid-1-yl]-acetamide, dihydrochloride] the value was 8.52 to 9.30; for `Cn1c(CCc2ccc(C(=N)N)cc2)nc2cc(N(Cc3ccncc3)C(=O)CN3CCC(Nc4ccccc4)CC3)ccc21` [Example 45, N-{2-[2-(4-Amidinophenyl)-ethyl]-1-methyl-benzimidazol-5-yl}-N-[4-pyridylmethyl]-2-(4-phenylamino-piperid-1-yl)-acetamide, dihydrochloride], 7.52 to 8.40; for `Cc1ccc(NC2CCN(CC(=O)N(C)c3ccc4c(c3)nc(CCc3ccc(C(=N)N)cc3)n4C)CC2)c(Cl)c1` [Example 61, N-{2-[2-(4-Amidinophenyl)-ethyl]-1-methyl-benzimidazol-5-yl}-N-methyl-2-[4-(2-chloro-4-methylamino)-piperid-1-yl]-acetamide, dihydrochloride], 8.52 to 9.30.
Then `CN(C(=O)CN1CCC(Nc2ccccc2OC(F)(F)F)CC1)c1ccc2c(c1)nc(CCc1ccc(C(=N)N)cc1)n2C` [Example 39, N-{2-[2-(4-Amidinophenyl)-ethyl]-1-methyl-benzimidazol-5-yl}-N-methyl-2-[4-(2-trifluoromethoxyphenylamino)-piperid-1-yl]-acetamide, dihydrochloride], with 7.52 to 8.40.
For `CN(c1ccccn1)C1CCN(CC(=O)N(Cc2cccc3ccccc23)c2ccc3c(c2)nc(CCc2ccc(C(=N)N)cc2)n3C)CC1` [Example 19, N-{2-[2-(4-Amidinophenyl)-ethyl]-1-methyl-benzimidazol-5-yl}-N-[naphth-1-ylmethyl]-2-[4-(2-pyridyl-N-methyl-amino)-piperid-1-yl]-acetamide, dihydrochloride] the value was 7.52 to 8.40; for `Cn1c(CCc2ccc(C(=N)N)cc2)nc2cc(N(Cc3cccc4ccccc34)C(=O)CN3CCC(NC(=O)c4ccccc4)CC3)ccc21` [Example 8, N-{2-[2-(4-Amidinophenyl)-ethyl]-1-methyl-benzimidazol-5-yl}-N-[naphth-1-ylmethyl]-2-[4-benzoic acid amide-piperid-1-yl]-acetamide, dihydrochloride], 7.52 to 8.40; for `CN(C(=O)CN1CCC(Nc2ccccc2Cl)CC1)c1ccc2c(c1)nc(CCc1ccc(C(=N)N)cc1)n2C` [Example 31, N-{2-[2-(4-Amidinophenyl)-ethyl]-1-methyl-benzimidazol-5-yl}-N-methyl-2-[4-(2-chlorophenylamino)-piperid-1-yl]-acetamide, dihydrochloride], 8.52 to 9.30.
For `Cn1c(CCc2ccc(C(=N)N)cc2)nc2cc(N(Cc3cccc4ccccc34)C(=O)Nc3cccc(Cl)c3)ccc21` [Example 74, N-{2-[2-(4-Amidinophenyl)-ethyl]-1-methyl-benzimidazol-5-yl}-N-[naphth-1-ylmethyl]-N′-(3-chloro)-phenyl, hydrochloride], the pIC50 was 6.00 to 7.51.
For `CN(C(=O)CN1CCC(Nc2ccc3c(c2)Cc2ccccc2-3)CC1)c1ccc2c(c1)nc(CCc1ccc(C(=N)N)cc1)n2C` [Example 42, N-{2-[2-(4-Amidinophenyl)-ethyl]-1-methyl-benzimidazol-5-yl}-N-methyl-2-[4-(aminofluorene)-piperid-1-yl]-acetamide, dihydrochloride] the value was 7.52 to 8.40; for `CC(C)c1ccc(NC2CCN(CC(=O)N(C)c3ccc4c(c3)nc(CCc3ccc(C(=N)N)cc3)n4C)CC2)c(Br)c1` [Example 68, N-{2-[2-(4-Amidinophenyl)-ethyl]-1-methyl-benzimidazol-5-yl}-N-methyl-2-[4-(2-bromo-4-isopropylamino)-piperid-1-yl]-acetamide, dihydrochloride], 6.00 to 7.51.
Then `CN(C(=O)CN1CCC(Nc2ccccc2F)CC1)c1ccc2c(c1)nc(CCc1ccc(C(=N)N)cc1)n2C` [Example 36, N-{2-[2-(4-Amidinophenyl)-ethyl]-1-methyl-benzimidazol-5-yl}-N-methyl-2-[4-(2-fluorophenylamino)-piperid-1-yl]-acetamide, dihydrochloride], with 8.52 to 9.30.
For `CN(C(=O)CN1CCC(NCc2ccccn2)CC1)c1ccc2c(c1)nc(CCc1ccc(C(=N)N)cc1)n2C` [Example 29, N-{2-[2-(4-Amidinophenyl)-ethyl]-1-methyl-benzimidazol-5-yl}-N-methyl-2-[4-(2-pyridylmethylamino)-piperid-1-yl]-acetamide, dihydrochloride] the value was 6.00 to 7.51; for `Cn1c(CCc2ccc(C(=N)N)cc2)nc2cc(N(Cc3ccc(N)cc3)C(=O)CN3CCC(Nc4ccccc4)CC3)ccc21` [Example 44, N-{2-[2-(4-Amidinophenyl)-ethyl]-1-methyl-benzimidazol-5-yl}-N-[4-aminophenyl-methyl]-2-(4-phenylamino-piperid-1-yl)-acetamide, dihydrochloride], 7.52 to 8.40; for `CN(CCCO)C1CCN(CC(=O)N(Cc2cccc3ccccc23)c2ccc3c(c2)nc(CCc2ccc(C(=N)N)cc2)n3C)CC1` [Example 2, N-{2-[2-(4-Amidinophenyl)-ethyl]-1-methyl-benzimidazol-5-yl}-N-[naphth-1-ylmethyl]-2-{4-[N-methyl-N-(3-hydroxypropyl)-amino]-piperid-1-yl}-acetamide, Trihydrochloride], 7.52 to 8.40.
`CN(C(=O)CN1CCC(Nc2cccc(Cl)c2)CC1)c1ccc2c(c1)nc(CCc1ccc(C(=N)N)cc1)n2C` [Example 106, N-{2-[2-(4-Amidinophenyl)-ethyl]-1-methyl-benzimidazol-5-yl}-N-methyl-2-[4-(3-chlorophenylamino)-piperid-1-yl]-acetamide, dihydrochloride]: the pIC50 was 8.52 to 9.30.
Then `CN(C(=O)CN1CCC(Nc2ccccc2C(C)(C)C)CC1)c1ccc2c(c1)nc(CCc1ccc(C(=N)N)cc1)n2C` [Example 64, dihydrochloride], with 7.52 to 8.40; and `CN(C(=O)CN1CCC(Nc2ccccc2Br)CC1)c1ccc2c(c1)nc(CCc1ccc(C(=N)N)cc1)n2C` [Example 35, N-{2-[2-(4-Amidinophenyl)-ethyl]-1-methyl-benzimidazol-5-yl}-N-methyl-2-[4-(2-bromophenylamino)-piperid-1-yl]-acetamide, dihydrochloride], with 8.52 to 9.30; and `CN(C(=O)CN1CCC(Nc2ccc(Br)cc2Cl)CC1)c1ccc2c(c1)nc(CCc1ccc(C(=N)N)cc1)n2C` [Example 62, N-{2-[2-(4-Amidinophenyl)-ethyl]-1-methyl-benzimidazol-5-yl}-N-methyl-2-[4-(2-chloro-4-bromoamino)-piperid-1-yl]-acetamide, dihydrochloride], with 8.52 to 9.30.
Take `Cn1c(CCc2ccc(C(=N)N)cc2)nc2cc(N(Cc3cccc4ccccc34)C(=O)CN3CCC(Nc4ccc(Cl)cc4)CC3)ccc21` [Example 10, N-{2-[2-(4-Amidinophenyl)-ethyl]-1-methyl-benzimidazol-5-yl}-N-[naphth-1-ylmethyl]-2-[4-(4-chlorophenylamino)-piperid-1-yl]-acetamide, dihydrochloride]: the pIC50 was 8.52 to 9.30.
For `CN(C(=O)CN1CCC(N(Cc2ccccc2)C2CCCN2)CC1)c1ccc2c(c1)nc(CCc1ccc(C(=N)N)cc1)n2C` (stereo not shown) [Example 43, N-{2-[2-(4-Amidinophenyl)-ethyl]-1-methyl-benzimidazol-5-yl}-N-methyl-2-{4-[(N-benzyl)-2-pyrrolidylamino]-piperid-1-yl}-acetamide, dihydrochloride] the value was 7.52 to 8.40; for `Cn1c(CCc2ccc(C(=N)N)cc2)nc2cc(N(Cc3ccccc3)C(=O)CN3CCC(Nc4ccccn4)CC3)ccc21` [Example 57, N-{2-[2-(4-Amidinophenyl)-ethyl]-1-methyl-benzimidazol-5-yl}-N-[benzyl]-2-[4-(2-pyridylamino)-piperid-1-yl]-acetamide, dihydrochloride], 7.52 to 8.40.
Then “N-{2-[2-(4-Amidinophenyl)-ethyl]-1-methyl-benzimidazol-5- yl}-N-[ethanecarboxylic acid]-2-[4-(2-pyridylamino)-piperid- 1-yl]-acetamide, dihydrochloride [Example 54]”, with 7.52 to 8.40; and `COc1cccc(NC(=O)N(Cc2cccc3ccccc23)c2ccc3c(c2)nc(CCc2ccc(C(=N)N)cc2)n3C)c1` [Example 73, N-{2-[2-(4-Amidinophenyl)-ethyl]-1-methyl-benzimidazol-5-yl}-N-[naphth-1-ylmethyl]-N′-(3-methoxy)-phenyl, hydrochloride], with 6.00 to 7.51.
